{
  "source": "ChEMBL document CHEMBL3804813",
  "about": "“Discovery and optimization of new benzofuran derivatives against p53-independent malignant cancer cells through inhibition of HIF-1 pathway” (Bioorg Med Chem Lett, 2016)",
  "key": {"[1]": {"assay": "Antiproliferative activity against human HCT116 cells expressing wild type p53 assessed as growth inhibition after 72 hrs by MTT assay", "format": "functional, cell-based", "conditions": "HCT-116, 72 h"}, "[2]": {"assay": "Antiproliferative activity against human p53-null HCT116 cells assessed as growth inhibition after 72 hrs by MTT assay", "format": "functional, cell-based", "conditions": "HCT-116, 72 h"}, "[3]": {"biological_target": "Hypoxia-inducible factor 1-alpha (Homo sapiens) (UniProt Q16665)", "sequence (Q16665 whole entry, looked up)": "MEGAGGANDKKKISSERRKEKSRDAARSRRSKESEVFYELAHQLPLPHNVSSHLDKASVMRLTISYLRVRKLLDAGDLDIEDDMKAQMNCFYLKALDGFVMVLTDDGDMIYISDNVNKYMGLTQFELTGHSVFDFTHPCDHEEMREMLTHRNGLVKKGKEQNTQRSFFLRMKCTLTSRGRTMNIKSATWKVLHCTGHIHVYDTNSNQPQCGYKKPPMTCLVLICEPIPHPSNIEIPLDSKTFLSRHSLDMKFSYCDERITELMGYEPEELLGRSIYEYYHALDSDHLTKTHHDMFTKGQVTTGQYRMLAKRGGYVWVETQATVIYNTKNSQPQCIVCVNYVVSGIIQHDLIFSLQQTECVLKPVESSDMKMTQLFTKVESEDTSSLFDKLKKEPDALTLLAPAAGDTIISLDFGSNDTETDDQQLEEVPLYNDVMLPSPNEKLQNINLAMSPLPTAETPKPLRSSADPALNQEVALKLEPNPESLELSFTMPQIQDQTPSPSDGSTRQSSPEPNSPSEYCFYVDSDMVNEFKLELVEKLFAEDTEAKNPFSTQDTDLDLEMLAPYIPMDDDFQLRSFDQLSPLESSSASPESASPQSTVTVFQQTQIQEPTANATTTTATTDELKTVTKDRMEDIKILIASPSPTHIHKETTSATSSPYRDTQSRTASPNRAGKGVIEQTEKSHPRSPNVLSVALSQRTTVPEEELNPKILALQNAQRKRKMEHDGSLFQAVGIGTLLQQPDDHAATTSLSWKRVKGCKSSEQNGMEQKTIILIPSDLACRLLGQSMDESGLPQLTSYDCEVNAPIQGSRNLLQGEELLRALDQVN", "assay": "Inhibition of HIF-1 (unknown origin) expressed in human MCF7 cells co-transfected with hypoxia reporter plasmid p(HRE)3-Luc at 20 uM measured under hypoxia condition after 24 hrs by dual-luciferase reporter assay", "format": "cell-based"}, "[4]": {"assay": "Antiproliferative activity against human MDA-MB-435S cells assessed as growth inhibition after 72 hrs by MTT assay", "format": "functional, cell-based"}, "MCF7": {"system": "MCF7", "assay": "Antiproliferative activity against human MCF7 cells assessed as growth inhibition after 72 hrs by MTT assay", "format": "functional, cell-based", "conditions": "MCF7, 72 h"}},
  "data": [
    {"smiles": "CCOC(=O)c1oc2ccc(N(CC3CCCCC3)S(=O)(=O)c3ccc(Cl)cc3)cc2c1C", "values": [
      {"measurement": "IC50", "setting": "[1]", "value": 14.1, "unit": "µM"},
      {"measurement": "IC50", "setting": "[2]", "value": "> 40", "unit": "µM"}
    ]},
    {"smiles": "CCOC(=O)c1oc2ccc(N(Cc3ccccc3)S(=O)(=O)c3ccccc3Br)cc2c1C", "values": [
      {"measurement": "IC50", "setting": "[1]", "value": "> 40", "unit": "µM"},
      {"measurement": "IC50", "setting": "[2]", "value": "> 40", "unit": "µM"}
    ]},
    {"smiles": "CCOC(=O)c1oc2ccc(N(Cc3ccccc3)S(=O)(=O)c3ccc(F)cc3)cc2c1C", "values": [
      {"measurement": "IC50", "setting": "[1]", "value": 5.82, "unit": "µM"},
      {"measurement": "IC50", "setting": "[2]", "value": 33.1, "unit": "µM"}
    ]},
    {"smiles": "Cc1c(C(=O)NCCCn2ccnc2)oc2ccc(N(Cc3ccc(Cl)cc3)S(=O)(=O)c3ccc(Cl)cc3)cc12", "values": [
      {"measurement": "inhibition", "setting": "[3]", "value": 27, "unit": "%"},
      {"measurement": "IC50", "setting": "[1]", "value": 2.43, "unit": "µM"},
      {"measurement": "IC50", "setting": "[4]", "value": 7.25, "unit": "µM"},
      {"measurement": "IC50", "setting": "[2]", "value": 1.89, "unit": "µM"},
      {"measurement": "IC50", "setting": "MCF7", "value": "> 40", "unit": "µM"}
    ]},
    {"smiles": "CCOC(=O)c1oc2ccc(N(Cc3ccccc3)S(=O)(=O)c3ccc(C(F)(F)F)cc3)cc2c1C", "values": [
      {"measurement": "IC50", "setting": "[1]", "value": 26.7, "unit": "µM"},
      {"measurement": "IC50", "setting": "[2]", "value": 12.7, "unit": "µM"}
    ]},
    {"smiles": "Cc1c(C(=O)O)oc2ccc(N(Cc3ccc(Br)cc3)S(=O)(=O)c3ccc(Br)cc3)cc12", "values": [
      {"measurement": "IC50", "setting": "[1]", "value": 8.58, "unit": "µM"},
      {"measurement": "IC50", "setting": "[2]", "value": "> 40", "unit": "µM"}
    ]},
    {"smiles": "CCOC(=O)c1oc2ccc(NS(=O)(=O)c3ccc(Cl)cc3)cc2c1C", "values": [
      {"measurement": "IC50", "setting": "[1]", "value": 24.3, "unit": "µM"},
      {"measurement": "IC50", "setting": "[2]", "value": "> 40", "unit": "µM"}
    ]},
    {"smiles": "CCOC(=O)c1oc2ccc(N(Cc3ccccc3)S(=O)(=O)c3ccccc3)cc2c1C", "values": [
      {"measurement": "IC50", "setting": "[1]", "value": "> 40", "unit": "µM"},
      {"measurement": "IC50", "setting": "[2]", "value": "> 40", "unit": "µM"}
    ]},
    {"smiles": "CCOC(=O)c1oc2ccc(N(C(C)C)S(=O)(=O)c3ccc(Cl)cc3)cc2c1C", "values": [
      {"measurement": "IC50", "setting": "[1]", "value": 7.83, "unit": "µM"},
      {"measurement": "IC50", "setting": "[2]", "value": "> 40", "unit": "µM"}
    ]},
    {"smiles": "Cc1c(C(=O)NCCCn2ccnc2)oc2ccc(N(Cc3ccccc3)S(=O)(=O)c3ccc(Cl)cc3)cc12", "values": [
      {"measurement": "inhibition", "setting": "[3]", "value": 32.3, "unit": "%"},
      {"measurement": "IC50", "setting": "[1]", "value": 17.1, "unit": "µM"},
      {"measurement": "IC50", "setting": "[4]", "value": 5.6, "unit": "µM"},
      {"measurement": "IC50", "setting": "[2]", "value": 5, "unit": "µM"},
      {"measurement": "IC50", "setting": "MCF7", "value": 31.8, "unit": "µM"}
    ]},
    {"smiles": "CCOC(=O)c1oc2ccc(NS(=O)(=O)c3ccc(C(F)(F)F)cc3)cc2c1C", "values": [
      {"measurement": "IC50", "setting": "[1]", "value": 5.03, "unit": "µM"},
      {"measurement": "IC50", "setting": "[2]", "value": 24.2, "unit": "µM"}
    ]},
    {"smiles": "Cc1c(C(=O)O)oc2ccc(N(Cc3ccccc3)S(=O)(=O)c3ccc(C(F)(F)F)cc3)cc12", "values": [
      {"measurement": "IC50", "setting": "[1]", "value": 4.13, "unit": "µM"},
      {"measurement": "IC50", "setting": "[2]", "value": 21.1, "unit": "µM"}
    ]},
    {"smiles": "CCOC(=O)c1oc2ccc(N(Cc3ccc(Br)cc3)S(=O)(=O)c3ccc(Br)cc3)cc2c1C", "values": [
      {"measurement": "IC50", "setting": "[1]", "value": 10.9, "unit": "µM"},
      {"measurement": "IC50", "setting": "[2]", "value": 5.22, "unit": "µM"}
    ]},
    {"smiles": "CCOC(=O)c1oc2ccc(N(Cc3ccc(Cl)cc3)S(=O)(=O)c3ccc(Cl)cc3)cc2c1C", "values": [
      {"measurement": "IC50", "setting": "[1]", "value": 9.48, "unit": "µM"},
      {"measurement": "IC50", "setting": "[2]", "value": 9.64, "unit": "µM"}
    ]},
    {"smiles": "CCOC(=O)c1oc2ccc(N(Cc3ccccc3)S(=O)(=O)c3cccc(Cl)c3)cc2c1C", "values": [
      {"measurement": "IC50", "setting": "[1]", "value": "> 40", "unit": "µM"},
      {"measurement": "IC50", "setting": "[2]", "value": "> 40", "unit": "µM"}
    ]},
    {"smiles": "Cc1c(C(=O)O)oc2ccc(N(Cc3ccccc3)S(=O)(=O)c3ccc(F)cc3)cc12", "values": [
      {"measurement": "IC50", "setting": "[1]", "value": "> 40", "unit": "µM"},
      {"measurement": "IC50", "setting": "[2]", "value": "> 40", "unit": "µM"}
    ]}
  ]
}
